Read-outs that look alike come from different tables or passages of the source.
Tests used:
[1] = stability / reaction with water; assay type: physicochemical
cancer cell = settings: Von Hoff et al., 1993; cited from earlier work
[2] = tested on: NCI 60 cell line panel (human tumor cell lines); assay: NCI 60 cell line full-panel screen (growth inhibition) with COMPARE analysis; assay type: cell-based; settings: for GI50: Homo sapiens, 60 cell, read-out: mean panel GI50 concentration
Excerpt: The following measures are used to express drug activity by giving the drug dose which reduces cell growth to a specified percentage of growth:
ED50 (P388) and GI50 (HTCL) are the drug doses needed to reduce the percent growth to 50%. There is no mathematical difference between ED50 and GI50, which are both calculated using the same formula. The only difference is historical usage.
Total Growth Inhibition ("TGI") is the drug dose needed to yield zero percent growth, i.e., just as many cells at the end of the experiment as were present in the beginning. Whether just as many cells were killed as were produced (steady state), or no growth occurred (total inhibition), cannot be distinguished.
Lethal Concentration 50% ("LC50 ") is the drug concentration which reduces growth to -50%, i.e., removes half of the cells originally present at the beginning of the experiment.
Each drug is tested at five (5) doses: 100 - 10 - 1 - 0.1 -0.01 μg/ml. Percent Growths are calculated for each dose. The two (or three) doses with growth values above, below, (or near to) 50% growth are used to calculate the ED50 /GI50 using a linear regression formula. The log of the dose is used during the regression computation. If no dose yields a growth value under 50%, the results are expressed as: ED50 >(highest dose). If no dose yields growth higher than 50% growth, then ED50 <(lowest dose). Similar calculations are performed for the TGI at 0% growth, and at -50% growth for the LC50.
At the start of an experiment, cells from the in vitro cell cultures are inoculated into the appropriate tubes or microtiter plates. One set of control tubes/plates is immediately counted to determine the number of cells at the start of the experiment. This is the "baseline count" or "Tzero reading". At the end of the experiment (48 hours later) a second set of control tubes/plates is analyzed to determine the "Control Growth" value. The growth (or death) of cells relative to the initial quantity of cells is used to define the "Percent of Growth".
For further information about the testing protocols and procedures see Anne Monks et al., "Feasibility of a High-Flux Anticancer Drug Screen Using a Diverse Panel of Cultured Human Tumor Cell Lines", 83 J. Nat. Cancer Inst. No. 11, pp. 757-66 (5 Jun. 1991) and […], "Status of the NCI Preclinical Antitumor Drug Discovery Screen" 3 Princ & Practice of Oncology Updates No. 10, pp. 1-12 (October 1989).
By definition a pro-drug is a precursor which will undergo metabolic activation in vivo to the active drug. […] Combretastatin A-4 (1a) and prodrug (1h) were then comparatively evaluated against the full-panel NCI screen (M. R. Boyd, "Status of the NCI Preclinical Antitumor Drug Discovery Screen: Implications for Selection of New Agents for Clinical trial," 3 Cancer: Principles and Practice of Oncology Updates No. 10, pp1-12 (1989) and M. R. Boyd et al. "The Future of New Drug Development. Section I. Introduction to Cancer Therapy," Current Therapy in Oncology. Philadelphia: Decker (1993)). […]

tubulin = settings: Hamel et al., 1989; cited from earlier work

## COc1ccc(/C=C\c2cc(OC)c(OC)c(OC)c2)cc1OP(=O)(O)O [Compound 1f, Ammonium hydrogen combretastatin A-4 3-O Phosphate]
Water solubility
  aqueous solubility (in words): most soluble

## COc1ccc(/C=C\c2cc(OC)c(OC)c(OC)c2)cc1O [Compound 1c]
[1]
  reaction with water: regenerated combretastatin A-4

## COc1ccc(/C=C\c2cc(OC)c(OC)c(OC)c2)cc1O [Compound 1b]
[1]
  reaction with water: regenerated combretastatin A-4

## COc1ccc(/C=C\c2cc(OC)c(OC)c(OC)c2)cc1O [Compound 1a, combretastatin A-4]
Cancer cell
  cancer cell growth inhibition: potent
[2]; full-panel NCI screen, mean over panel, quadruplicate, 48 hours
  GI50: 6.61 nM
tubulin
  tubulin assembly inhibition: potent

## COc1ccc(/C=C\c2cc(OC)c(OC)c(OC)c2)cc1OP(=O)(O)O [Compound 1g, Dipotassium combretastatin A-4 3-O-phosphate]
[1]
  stability (in words): most stable

## COc1ccc(/C=C\c2cc(OC)c(OC)c(OC)c2)cc1OC(=O)CCC(=O)O [Compound 1d]
[1]
  reaction with water: regenerated combretastatin A-4
Water solubility
  aqueous solubility (in words): essentially insoluble

## COc1ccc(/C=C\c2cc(OC)c(OC)c(OC)c2)cc1OP(=O)(O)O [Compound 1h, Disodium combretastatin A-4 3-O-Phosphate]
[2]; 48 h
  GI50: 6.89 nM
[2]; combretastatin A-4 (1a) vs its prodrug (1h)
  Pearson correlation coefficient for the differential cytotoxicity profiles (TGI-COMPARE): 0.91
[2]; compared with combretastatin (1a)
  cell growth inhibitory activity: comparable
[2]; compared with combretastatin A-4, activity level and COMPARE algorithm
  in vitro activity levels in the NCI 60 cell line panel: reasonably similar

From US5561122A, “Combretastatin A-4 prodrug” (Arizona Board of Regents acting on behalf of Arizona State …, priority 1994, dated 1996)
